Measured values from PMC12655529, “Serendipitous Hinge Modulation Hypothetically Reprograms Caerin 1.1-LC Antibacterial Mechanism and Gram-Negative Selectivity” (Pharmaceutics, 2025).
Ends that are not written are not given here.

Legend:
[1] = tested on: Escherichia coli ATCC 8739; type: cell-based; details: ATCC 8739
Procedure: (§1) The antimicrobial activities of the peptides were evaluated by determining their minimal inhibitory concentration (MIC) and minimal bactericidal concentration (MBC) values following reported protocols [20]. The tested microorganisms included seven Gram-negative bacterial strains (Escherichia coli ATCC 8739, E. coli ATCC-BAA 2340, E. coli NCTC 13846, Klebsiella pneumoniae ATCC 43816, K. pneumoniae ATCC BAA-2342, Pseudomonas aeruginosa ATCC 9027, Acinetobacter baumannii ATCC BAA-747), three Gram-positive bacterial strains (Staphylococcus aureus ATCC 6538, Enterococcus faecalis NCTC 12697, MRSA NCTC 12493, and the fungal strain Candida albicans ATCC 10231. For the assay, each bacterial strain was cultured overnight at 37 °C in 100 mL of medium in a flask. The cultures were then subcultured to reach the logarithmic growth phase and diluted to 5 × 10^5 CFU/mL. Peptide samples were serially diluted two-fold in microplates, with concentrations ranging from 128 μM to 1 μM. The diluted bacterial suspensions were mixed with the peptide solutions and incubated overnight at 37 °C. The MIC values were determined by measuring the absorbance of each well using a Synergy HT plate reader (Agilent, Cheshire, UK). For MBC determination, aliquots from wells showing no visible growth were inoculated onto agar plates to assess bacterial viability. Each experiment was repeated independently three times and conducted in three independent replicates.

E. coli ATCC BAA-2340 = type: cell-based, Escherichia coli
Procedure: as §1

E. coli NCTC 13846 = type: cell-based, Escherichia coli
[2] = tested on: Klebsiella pneumoniae ATCC 43816; type: cell-based; details: ATCC 43816
Procedure: as §1

[3] = tested on: K. pneumoniae ATCC BAA-2342; type: cell-based, Klebsiella pneumoniae
Procedure: as §1

[4] = tested on: Pseudomonas aeruginosa ATCC 9027; type: cell-based
Procedure: as §1

[5] = tested on: Acinetobacter baumannii ATCC BAA-747; type: cell-based; details: ATCC BAA-747
[6] = tested on: Staphylococcus aureus ATCC 6538; type: cell-based; details: ATCC 6538
Procedure: as §1

[7] = tested on: Enterococcus faecalis NCTC 12697; type: cell-based; details: NCTC 12697
Procedure: as §1

MRSA NCTC 12493 = type: cell-based, Staphylococcus aureus
Procedure: as §1

horse red blood cells = assay: Haemolysis assay; type: cell-based; details: concentration inducing 10% haemolysis of horse erythrocytes; 4% (v/v) in PBS, 2 h, 37 °C, absorbance 570 nm; no haemolysis at maximum testing concentration (128 μM) recorded as 256 μM
Procedure: The peptide cytotoxicity against mammalian erythrocytes was evaluated by haemolysis assay on horse red blood cells (E&O Laboratories Ltd., Falkirk, UK). Fresh horse blood was washed three times with PBS and resuspended to a final concentration of 4% (v/v) in PBS. The diluted blood suspension was then mixed with peptide solutions at varying concentrations and incubated for 2 h at 37 °C. Red blood cell suspensions treated with 0.1% Triton X-100 and PBS were used as controls. The Triton X-100-treated suspension was the positive control (for 100% haemolysis), while the PBS-treated suspension was the blank control. Following incubation, the mixtures were centrifuged at 1000× g for 10 min to separate erythrocytes from the supernatant. The absorbance of the supernatants was detected at 570 nm. The percentage haemolysis was calculated by following the equationPercentage Haemolysis = (AbsSample − AbsBlank)/(AbsPositive − AbsBlank) × 100%

Gram-negative bacteria = assay: Geometric mean MIC and therapeutic index, Gram-negative; type: cell-based; details: geometric mean of MICs
Gram-positive bacteria = assay: Geometric mean MIC and therapeutic index, Gram-positive; type: cell-based; details: geometric mean of MICs
E. coli (ATCC-BAA 2340) = type: cell-based, Escherichia coli; details: ATCC-BAA 2340
Procedure: The peptide sensitivity was determined in different salt- and serum-containing environments. Bacterial strains were prepared following the MIC detection protocol described previously. To evaluate peptide sensitivity under physiological conditions, various concentrations of salt ions (150 mM NaCl, 4.5 mM KCl, 2 mM CaCl2, 1 mM MgCl2, 8 µM ZnCl2, 6 µM NH4Cl, or 4 µM FeCl3) and serum (10% FBS) were prepared in McCartney bottles prior to the addition of bacterial suspensions. The subcultured bacterial suspensions were then introduced to these modified media conditions. For MIC determination, the treated bacterial suspensions were diluted and dispensed into 96-well plates containing peptide solutions at graded concentrations. This assay allowed for the detection of potential alterations in MIC values, serving as an indicator of peptide sensitivity under different physiological conditions. All experiments were independently repeated three times, each with three replicates.

Substance	MBC, E. coli (ATCC 8739) [1] [µM]	MIC, E. coli (ATCC 8739) [1] [µM]	MBC, E. coli (ATCC BAA-2340) (E. coli ATCC BAA-2340) [µM]	MIC, E. coli (ATCC BAA-2340) (E. coli ATCC BAA-2340) [µM]	MBC, K. pneumoniae (ATCC 43816) [2] [µM]	MIC, K. pneumoniae (ATCC 43816) [2] [µM]	MBC, K. pneumoniae (ATCC BAA-2342) [3] [µM]	MIC, K. pneumoniae (ATCC BAA-2342) [3] [µM]	MBC, P. aeruginosa (ATCC 9027) [4] [µM]	MIC, P. aeruginosa (ATCC 9027) [4] [µM]	MBC, A. baumannii (ATCC BAA-747) [5] [µM]	MIC, A. baumannii (ATCC BAA-747) [5] [µM]	MBC, S. aureus (ATCC 6538) [6] [µM]	MIC, S. aureus (ATCC 6538) [6] [µM]	MBC, E. faecalis (NCTC 12697) [7] [µM]	MIC, E. faecalis (NCTC 12697) [7] [µM]	MBC, MRSA (NCTC 12493) (MRSA NCTC 12493) [µM]	MIC, MRSA (NCTC 12493) (MRSA NCTC 12493) [µM]	HC10 (horse red blood cells) [µM]	GM MIC Gram-Positive (Gram-positive bacteria) [µM]	other results
GLLSVLGSLKLIVAHVVALIAEKL-NH2 [Caerin 1.1-LC 2P-2A]	>128	>128	>128	>128	>128	>128	>128	>128	>128	>128	>128	>128	>128	>128	>128	>128	>128	>128	256	256	MBC, E. coli (NCTC 13846) (E. coli NCTC 13846): >128 µM; MIC, E. coli (NCTC 13846) (E. coli NCTC 13846): >128 µM; GM MIC Gram-Negative (Gram-negative bacteria): 256 µM
GLLSVLGSLKKIVPHVVPLIAEKL-NH2 [Caerin 1.1-LC 11K]	16	8	8	2	32	16	16	8	32	16	32	32	32	8	128	128	8	8	35.8	20.1	MBC, E. coli (NCTC 13846) (E. coli NCTC 13846): 8 µM; MIC, E. coli (NCTC 13846) (E. coli NCTC 13846): 4 µM; GM MIC Gram-Negative (Gram-negative bacteria): 8.8 µM
GLLSVLGSLKLIVPHLLPLIAEKL-NH2 [Caerin 1.1-LC PHLLP]	8	4	4	4	8	8	16	8	64	32	8	4	4	4	32	32	4	4	1.6	6.56	MBC, E. coli (NCTC 13846) (E. coli NCTC 13846): 4 µM; MIC, E. coli (NCTC 13846) (E. coli NCTC 13846): 4 µM; GM MIC Gram-Negative (Gram-negative bacteria): 8 µM
GLLSVLGSLKKWVPHVVPLIAKKL-NH2 [Caerin 1.1-LC 11K.12K.12W]	2	2	4	2	4	2	8	8	4	2	4	4	2	1	32	32	16	1	8.5	2	MBC, E. coli (NCTC 13846) (E. coli NCTC 13846): 4 µM; MIC, E. coli (NCTC 13846) (E. coli NCTC 13846): 2 µM; MIC, Ca^2+ (E. coli (ATCC-BAA 2340)): 32 µM; MIC, Control (E. coli (ATCC-BAA 2340)): 4 µM; MIC, FBS (E. coli (ATCC-BAA 2340)): 8 µM; MIC, Fe^3+ (E. coli (ATCC-BAA 2340)): 4 µM; MIC, K^+ (E. coli (ATCC-BAA 2340)): 4 µM; MIC, Mg^2+ (E. coli (ATCC-BAA 2340)): 8 µM; MIC, NH4^+ (E. coli (ATCC-BAA 2340)): 4 µM; MIC, Na^+ (E. coli (ATCC-BAA 2340)): 4 µM
GLLSVLGSLKLIVPGGGPLIAEKL-NH2 [Caerin 1.1-LC PGGGP]	128	128	> 128	128	>128	>128	>128	>128	>128	>128	>128	>128	>128	>128	>128	>128	>128	>128	256	256	GM MIC Gram-Negative (Gram-negative bacteria): 190.21 µM
GLLSVLGSLKLIVPHWWPLIAEKL-NH2 [Caerin 1.1-LC PHWWP]	64	32	32	16	>128	>128	>128	>128	>128	>128	>128	>128	>128	>128	>128	>128	>128	>128	256	256	MBC, E. coli (NCTC 13846) (E. coli NCTC 13846): 128 µM; MIC, E. coli (NCTC 13846) (E. coli NCTC 13846): 64 µM; GM MIC Gram-Negative (Gram-negative bacteria): 105 µM
